Results from ChEMBL document CHEMBL6078723, “Novel steroidal β-carboline derivatives as promising antibacterial candidates against methicillin-resistant Staphylococcus aureus” (Eur J Med Chem, 2025).

Legend:
Assay type in all cases: functional
Staphylococcus aureus [1] = assay: Antibacterial activity against methicillin-resistant Staphylococcus aureus CGMCC1.12409
Staphylococcus aureus [2] = assay: Antibacterial activity against methicillin-resistant Staphylococcus aureus ATCC 33591
Staphylococcus aureus [3] = assay: Antibacterial activity against methicillin-resistant Staphylococcus aureus ATCC 43300
Staphylococcus aureus [4] = assay: Antibacterial activity against Staphylococcus aureus CGMCC1.8721

Structure (SMILES) | MIC (Staphylococcus aureus [1]) [µg/mL] | MIC (Staphylococcus aureus [2]) [µg/mL] | MIC (Staphylococcus aureus [3]) [µg/mL] | MIC (Staphylococcus aureus [4]) [µg/mL]
COc1ccc(OC)c(C[n+]2ccc3c([nH]c4ccc(OC)cc43)c2CC[C@H](C)[C@H]2CC[C@H]3[C@@H]4[C@H](O)C[C@@H]5C[C@H](O)CC[C@]5(C)[C@H]4CC[C@]23C)c1.[Br-] | 8 | 8 | 8 | 4
COc1ccc2[nH]c3c(CC[C@H](C)[C@H]4CC[C@H]5[C@@H]6[C@H](O)C[C@@H]7C[C@H](O)CC[C@]7(C)[C@H]6CC[C@]45C)[n+](Cc4ccc(OC(F)(F)F)cc4)ccc3c2c1.[Br-] | 16 | 16 | 16 | 16
COc1ccc2[nH]c3c(CC[C@H](C)[C@H]4CC[C@H]5[C@@H]6CC[C@@H]7C[C@H](O)CC[C@]7(C)[C@H]6CC[C@]45C)[n+](Cc4ccc(C(F)(F)F)cc4)ccc3c2c1.[Br-] | 16 | 32 | 16 | 16
COc1ccc2[nH]c3c(CC[C@H](C)[C@H]4CC[C@H]5[C@@H]6[C@H](O)C[C@@H]7C[C@H](O)CC[C@]7(C)[C@H]6CC[C@]45C)[n+](Cc4ccccc4C)ccc3c2c1.[Br-] | 16 | 16 | 16 | 16
COc1ccc2[nH]c3c(CC[C@H](C)[C@H]4CC[C@H]5[C@@H]6[C@H](O)C[C@@H]7C[C@H](O)CC[C@]7(C)[C@H]6CC[C@]45C)[n+](Cc4ccc(C)cc4)ccc3c2c1.[Br-] | 16 | 16 | 16 | 16
CCCC[n+]1ccc2c([nH]c3ccc(OC)cc32)c1CC[C@H](C)[C@H]1CC[C@H]2[C@@H]3[C@H](O)C[C@@H]4C[C@H](O)CC[C@]4(C)[C@H]3C[C@H](O)[C@]12C.[Br-] | 16 | 16 | 16 | 16
COc1ccc2[nH]c3c(CC[C@H](C)[C@H]4CC[C@H]5[C@@H]6[C@H](O)C[C@@H]7C[C@H](O)CC[C@]7(C)[C@H]6CC[C@]45C)[n+](Cc4cccc(Cl)c4)ccc3c2c1.[Br-] | 16 | 32 | 16 | 16
COc1ccc2[nH]c3c(CC[C@H](C)[C@H]4CC[C@H]5[C@@H]6[C@H](O)C[C@@H]7C[C@H](O)CC[C@]7(C)[C@H]6CC[C@]45C)[n+](Cc4ccc(F)cc4)ccc3c2c1.[Br-] | 4 | 8 | 4 | 4
CCC[n+]1ccc2c([nH]c3ccc(OC)cc32)c1CC[C@H](C)[C@H]1CC[C@H]2[C@@H]3[C@H](O)C[C@@H]4C[C@H](O)CC[C@]4(C)[C@H]3C[C@H](O)[C@]12C.[Br-] | 16 | 16 | 16 | 16
CCCCC[n+]1ccc2c([nH]c3ccc(OC)cc32)c1CC[C@H](C)[C@H]1CC[C@H]2[C@@H]3[C@H](O)C[C@@H]4C[C@H](O)CC[C@]4(C)[C@H]3CC[C@]12C.[Br-] | 16 | 16 | 16 | 8
COc1ccc2[nH]c3c(CC[C@H](C)[C@H]4CC[C@H]5[C@@H]6CC[C@@H]7C[C@H](O)CC[C@]7(C)[C@H]6CC[C@]45C)[n+](Cc4ccc(OC(F)(F)F)cc4)ccc3c2c1.[Br-] | 16 | 32 | 16 | 16
COc1ccc2[nH]c3c(CC[C@H](C)[C@H]4CC[C@H]5[C@@H]6[C@H](O)C[C@@H]7C[C@H](O)CC[C@]7(C)[C@H]6CC[C@]45C)[n+](Cc4ccc(Br)cc4)ccc3c2c1.[Br-] | 16 | 32 | 16 | 16
